From US20230049231A1 (priority 2019, published 2023)
pIC50: −log10 of the molar value.

Assays:
hERG channel = molecular target: T1, hERG channel (Homo sapiens, UniProt Q12809); test: hERG electrophysiology, automated whole-cell patch clamp (Patchliner); format: cell-based; settings: hERG channel, whole-cell patch clamp
T1 construct: expressed in transfected cells
Procedure: This assay is used to evaluate the disclosed compounds' inhibition activities against the hERG channel.
CHO-K1 cells stably expressing hERG were grown in Ham's F-12 Medium with glutamine containing 10% heat-inactivated FBS, 1% penicillin/streptomycin, hygromycin (100 μg/ml) and G418 (100 μg/ml). Cells were grown in culture flasks at 37° C. in a 5% CO2-humidified incubator.
The cells were bathed in an extracellular solution containing 140 mM NaCl, 4 mM KCl, 2 mM CaCl2), 1 mM MgCl2, 5 mM glucose, and 10 mM HEPES; pH adjusted to 7.4 with NaOH; 295-305 mOsm. The internal solution contained 50 mM KCl, 10 mM NaCl, 60 mM KF, 20 mM EGTA, and 10 mM HEPES; pH adjusted to 7.2 with KOH; 285 mOsm. All compounds were dissolved in DMSO at 30 mM. Compound stock solutions were freshly diluted with external solution to concentrations of 30 nM, 100 nM, 300 nM, 1 μM, 3 μM, 10 μM, 30 μM and 100 μM. The highest content of DMSO (0.3%) was present in 100 μM.
The voltage protocol (see Table 3) was designed to simulate voltage changes during a cardiac action potential with a 300 ms depolarization to +20 mV (analogous to the plateau phase of the cardiac action potential), a repolarization for 300 ms to −50 mV (inducing a tail current) and a final step to the holding potential of −80 mV. The pulse frequency was 0.3 Hz. Control (compound-free) and compound pulse trains for each compound concentration applied contained 70 pulses.
Whole-cell current recordings and compound application were enabled by means of an automated patch clamp platform Patchliner (Nanion). EPC 10 patch clamp amplifier (HEKA) along with Patchmaster software (HEKA Elektronik Dr. Schulze GmbH) was used for data acquisition. Data were sampled at 10 kHz without filtering. Increasing compound concentrations were applied consecutively to the same cell without washouts in between.
AUC and PEAK values were obtained with Patchmaster (HEKA Elektronik Dr. Schulze GmbH). To determine IC50 the last single pulse in the pulse train corresponding to a given compound concentration was used. Obtained AUC and PEAK values in the presence of compound were normalized to control values in the absence of compound. Using Origin (OridinLab), IC50 was derived from data fit to Hill equation: Icompound/Icontrol=(100-A)/(1+([compound]/IC50)nH)+A, where IC50 is the concentration at which current inhibition is half-maximal, [compound] is the applied compound concentration, A is the fraction of current that is not blocked and nH is the Hill coefficient.

Kv1.3 potassium channel = molecular target: T2, Kv1.3 potassium channel (Homo sapiens, UniProt P22001); test: Kv1.3 potassium channel blocker activity, automated whole-cell patch clamp (Patchliner); format: cell-based; settings: Kv1.3 potassium channel, whole-cell patch clamp
T2 construct: expressed in transfected cells
T2 sequence (P22001 whole entry): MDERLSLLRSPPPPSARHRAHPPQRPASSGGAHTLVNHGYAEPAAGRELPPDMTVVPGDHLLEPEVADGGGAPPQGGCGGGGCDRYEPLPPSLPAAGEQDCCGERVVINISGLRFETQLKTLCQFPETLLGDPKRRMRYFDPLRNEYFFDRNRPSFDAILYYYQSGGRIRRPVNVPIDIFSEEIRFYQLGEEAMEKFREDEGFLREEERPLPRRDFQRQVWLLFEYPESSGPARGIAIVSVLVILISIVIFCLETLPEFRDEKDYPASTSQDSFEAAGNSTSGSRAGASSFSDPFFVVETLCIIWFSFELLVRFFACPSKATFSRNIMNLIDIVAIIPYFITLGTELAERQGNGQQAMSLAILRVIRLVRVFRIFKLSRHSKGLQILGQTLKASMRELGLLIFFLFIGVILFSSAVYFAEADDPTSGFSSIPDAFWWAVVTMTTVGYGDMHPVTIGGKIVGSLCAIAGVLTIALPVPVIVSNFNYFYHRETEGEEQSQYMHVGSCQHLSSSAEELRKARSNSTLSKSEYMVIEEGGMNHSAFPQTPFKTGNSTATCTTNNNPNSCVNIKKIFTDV
Summary of the method: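 IC50 came from Hill-equation fits of peak and AUC currents from the final pulse at each concentration, normalized to compound-free control. Compounds applied consecutively at 30 nM to 100 μM (up to 0.3% DMSO) to Kv1.3-expressing CHO-K1 cells, P/4 leak subtraction. Pulses were +40 mV, 100 ms, from −90 mV holding, at 0.1 Hz on Patchliner.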

T1 sequence (Q12809 whole entry): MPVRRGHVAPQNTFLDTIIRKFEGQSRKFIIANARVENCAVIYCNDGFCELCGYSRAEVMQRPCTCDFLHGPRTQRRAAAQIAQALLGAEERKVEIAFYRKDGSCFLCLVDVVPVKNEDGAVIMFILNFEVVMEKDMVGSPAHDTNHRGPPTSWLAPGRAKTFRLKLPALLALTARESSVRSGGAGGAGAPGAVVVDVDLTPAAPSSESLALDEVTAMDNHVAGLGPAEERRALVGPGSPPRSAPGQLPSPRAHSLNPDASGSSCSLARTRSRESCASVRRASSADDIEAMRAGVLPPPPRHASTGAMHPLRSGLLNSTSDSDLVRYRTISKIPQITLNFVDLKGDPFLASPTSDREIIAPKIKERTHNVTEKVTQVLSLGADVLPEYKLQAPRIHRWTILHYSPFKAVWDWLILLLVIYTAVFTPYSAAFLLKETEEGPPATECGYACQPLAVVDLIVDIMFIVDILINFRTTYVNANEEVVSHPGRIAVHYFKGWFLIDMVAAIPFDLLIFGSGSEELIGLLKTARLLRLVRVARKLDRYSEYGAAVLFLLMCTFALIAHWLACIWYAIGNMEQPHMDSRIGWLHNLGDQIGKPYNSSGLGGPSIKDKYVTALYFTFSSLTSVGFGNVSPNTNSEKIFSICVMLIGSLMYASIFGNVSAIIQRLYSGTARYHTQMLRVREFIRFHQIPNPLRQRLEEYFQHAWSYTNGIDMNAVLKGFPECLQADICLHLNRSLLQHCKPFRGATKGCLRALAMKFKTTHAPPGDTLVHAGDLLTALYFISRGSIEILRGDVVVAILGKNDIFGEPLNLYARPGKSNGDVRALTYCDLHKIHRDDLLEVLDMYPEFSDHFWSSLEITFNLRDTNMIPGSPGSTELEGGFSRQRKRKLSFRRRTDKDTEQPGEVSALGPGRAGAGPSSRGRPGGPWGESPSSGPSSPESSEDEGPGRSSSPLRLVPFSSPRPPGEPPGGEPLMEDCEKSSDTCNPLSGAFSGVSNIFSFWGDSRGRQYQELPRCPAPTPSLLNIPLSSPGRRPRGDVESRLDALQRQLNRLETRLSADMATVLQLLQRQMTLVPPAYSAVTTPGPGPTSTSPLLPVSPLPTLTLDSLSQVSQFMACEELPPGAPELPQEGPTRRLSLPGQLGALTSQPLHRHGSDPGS

SMILES	pIC50 (hERG channel)	pIC50 (Kv1.3 potassium channel)
CN(CCO)[C@H]1CC(=O)N2C[C@@H](c3c(O)ccc(Cl)c3Cl)C[C@H]2C1 (single isomer, unassigned) [Compound 205]	< 4.52	> 6.00
O=C1CC(N2CCNCC2)C[C@@H]2C[C@H](c3c(O)ccc(Cl)c3Cl)CN12 (single isomer, unassigned) [Compound 207]	< 4.52	> 6.00
O=C1C[C@@H](c2cn[nH]c2)C[C@@H]2C[C@H](c3c(O)ccc(Cl)c3Cl)CN12 (single isomer, unassigned) [Compound 215]	< 4.52	> 6.00
O=C1C[C@H](c2cn[nH]c2)C[C@@H]2C[C@H](c3c(O)ccc(Cl)c3Cl)CN12 (single isomer, unassigned) [Compound 216]	> 5.00	> 6.00
NC[C@@]1(O)CC(=O)N2C[C@@H](c3c(O)ccc(Cl)c3Cl)C[C@H]2C1 (single isomer, unassigned) [Compound 218]	< 4.52	> 6.00
NC[C@]1(O)CC(=O)N2C[C@@H](c3c(O)ccc(Cl)c3Cl)C[C@H]2C1 (single isomer, unassigned) [Compound 219]	< 4.52	> 6.00
NC(=O)[C@H]1CC(=O)N2C[C@@H](c3c(O)ccc(Cl)c3Cl)C[C@H]2C1 (single isomer, unassigned) [Compound 231]	< 4.52	> 6.00
O=C(NCCO)[C@@H]1CC(=O)N2C[C@@H](c3c(O)ccc(Cl)c3Cl)C[C@H]2C1 (single isomer, unassigned) [Compound 234]	< 4.52	> 6.00
O=C(NC1CNC1)[C@H]1CC(=O)N2C[C@@H](c3c(O)ccc(Cl)c3Cl)C[C@H]2C1 (single isomer, unassigned) [Compound 235]	< 4.52	> 6.00
O=C(NC1CNC1)[C@@H]1CC(=O)N2C[C@@H](c3c(O)ccc(Cl)c3Cl)C[C@H]2C1 (single isomer, unassigned) [Compound 236]	< 4.52	> 6.00
O=C1C[C@@H](CO)C[C@@H]2C[C@H](c3c(O)ccc(Cl)c3Cl)CN12 (single isomer, unassigned) [Compound 237]	< 4.52	> 6.00
O=C1C[C@H](CO)C[C@@H]2C[C@H](c3c(O)ccc(Cl)c3Cl)CN12 (single isomer, unassigned) [Compound 238]	< 4.52	> 6.00
CNC[C@@H]1CC(=O)N2C[C@@H](c3c(O)ccc(Cl)c3Cl)C[C@H]2C1 (single isomer, unassigned) [Compound 239]	< 4.52	> 6.00
O=C1C[C@@H](CN2CC(O)C2)C[C@@H]2C[C@H](c3c(O)ccc(Cl)c3Cl)CN12 (single isomer, unassigned) [Compound 242]	< 4.52	> 6.00
O=C1C[C@H](CN2CC(O)C2)C[C@@H]2C[C@H](c3c(O)ccc(Cl)c3Cl)CN12 (single isomer, unassigned) [Compound 243]	> 4.52	> 6.00
N[C@H]1CC2C[C@H](c3c(O)ccc(Cl)c3Cl)CN2C1=O (single isomer, unassigned) [Compound 248]	> 5.00	> 6.00
O=C1O[C@@H](CO)[C@@H]2C[C@H](c3c(O)ccc(Cl)c3Cl)CN12 (single isomer, unassigned) [Compound 253]	< 4.52	> 6.00
O=C1O[C@H](CO)[C@@H]2C[C@H](c3c(O)ccc(Cl)c3Cl)CN12 (single isomer, unassigned) [Compound 254]	< 4.52	> 6.00
CC(C)(O)[C@@H]1OC(=O)N2C[C@@H](c3c(O)ccc(Cl)c3Cl)C[C@@H]12 (single isomer, unassigned) [Compound 256]	< 4.52	> 6.00
C[C@H](O)[C@H]1OC(=O)N2C[C@@H](c3c(O)ccc(Cl)c3Cl)C[C@@H]12 (single isomer, unassigned) [Compound 258]	< 4.52	> 6.00
C[C@@H](O)[C@@H]1OC(=O)N2C[C@@H](c3c(O)ccc(Cl)c3Cl)C[C@@H]12 (single isomer, unassigned) [Compound 259]	< 4.52	> 6.00

SMILES	pIC50 (hERG channel)	pIC50 (Kv1.3 potassium channel)
O=C1O[C@@H]([C@@H](O)CO)[C@@H]2C[C@H](c3c(O)ccc(Cl)c3Cl)CN12 (single isomer, unassigned) [Compound 260]	< 4.52	> 6.00
O=C1O[C@@H]([C@H](O)CO)[C@@H]2C[C@H](c3c(O)ccc(Cl)c3Cl)CN12 (single isomer, unassigned) [Compound 261]	< 4.52	> 6.00
O=C1O[C@H]([C@@H](O)CO)[C@@H]2C[C@H](c3c(O)ccc(Cl)c3Cl)CN12 (single isomer, unassigned) [Compound 262]	< 4.52	> 6.00
O=C1O[C@H]([C@H](O)CO)[C@@H]2C[C@H](c3c(O)ccc(Cl)c3Cl)CN12 (single isomer, unassigned) [Compound 263]	< 4.52	> 6.00
C[C@]1(CO)OC(=O)N2C[C@@H](c3c(O)ccc(Cl)c3Cl)C[C@H]21 (single isomer, unassigned) [Compound 264]	< 4.52	> 6.00
C[C@@]1(CO)OC(=O)N2C[C@@H](c3c(O)ccc(Cl)c3Cl)C[C@H]21 (single isomer, unassigned) [Compound 265]	< 4.52	> 6.00
O=C1OC[C@@H](O)[C@@H]2C[C@H](c3c(O)ccc(Cl)c3Cl)CN12 (single isomer, unassigned) [Compound 266]	< 4.52	> 6.00
O=C1OC[C@H](O)[C@@H]2C[C@H](c3c(O)ccc(Cl)c3Cl)CN12 (single isomer, unassigned) [Compound 267]	< 4.52	> 6.00
O=C1O[C@H](CO)C[C@@H]2C[C@H](c3c(O)ccc(Cl)c3Cl)CN12 (single isomer, unassigned) [Compound 268]	< 4.52	> 6.00
O=C1O[C@@H](CO)C[C@@H]2C[C@H](c3c(O)ccc(Cl)c3Cl)CN12 (single isomer, unassigned) [Compound 269]	< 4.52	> 6.00
O=C1O[C@H](CCO)[C@@H]2C[C@H](c3c(O)ccc(Cl)c3Cl)CN12 (single isomer, unassigned) [Compound 270]	> 4.52	> 6.00
O=C1O[C@@H](CCO)[C@@H]2C[C@H](c3c(O)ccc(Cl)c3Cl)CN12 (single isomer, unassigned) [Compound 271]	> 4.52	> 6.00
NC[C@@H]1OC(=O)N2C[C@@H](c3c(O)ccc(Cl)c3Cl)C[C@@H]12 (single isomer, unassigned) [Compound 272]	> 4.52	> 6.00
NC[C@H]1OC(=O)N2C[C@@H](c3c(O)ccc(Cl)c3Cl)C[C@@H]12 (single isomer, unassigned) [Compound 273]	< 4.52	> 6.00
O=C(CO)NC[C@@H]1OC(=O)N2C[C@@H](c3c(O)ccc(Cl)c3Cl)C[C@@H]12 (single isomer, unassigned) [Compound 274]	< 4.52	> 6.00
O=C(CO)NC[C@H]1OC(=O)N2C[C@@H](c3c(O)ccc(Cl)c3Cl)C[C@@H]12 (single isomer, unassigned) [Compound 275]	< 4.52	> 6.00
O=C(NC[C@@H]1OC(=O)N2C[C@@H](c3c(O)ccc(Cl)c3Cl)C[C@@H]12)C1CNC1 (single isomer, unassigned) [Compound 277]	< 4.52	> 6.00
O=C(NC[C@H]1OC(=O)N2C[C@@H](c3c(O)ccc(Cl)c3Cl)C[C@@H]12)C1CNC1 (single isomer, unassigned) [Compound 278]	< 4.52	> 6.00
O=C1O[C@@H](CN2CCNCC2)[C@@H]2C[C@H](c3c(O)ccc(Cl)c3Cl)CN12 (single isomer, unassigned) [Compound 279]	> 4.52	> 6.00
O=C1O[C@H](CN2CCNCC2)[C@@H]2C[C@H](c3c(O)ccc(Cl)c3Cl)CN12 (single isomer, unassigned) [Compound 280]	< 4.52	> 6.00
